Results on two molecules are retold here after patent US20250109504A1, “HETEROCYCLIC NON-TRIAZOLE COMPOUNDS AND METHODS FOR INHIBITING CORROSION IN INDUSTRIAL WATER TREATMENT” (CHEMTREAT, INC., priority 2023, published 2025).

A short description of series [1]: Solubility in sodium hydroxide (NaOH). To be noted: solubilized in sodium hydroxide (NaOH). It counts as physicochemical. The source says: Moreover, conventional treatment methods involve solubilizing corrosion inhibitors in sodium hydroxide (NaOH). Solubility of benzimidazoles and polymeric acids such as 4,5-imidazoledicarboxylic acid in NaOH is low, i.e., less than 2%. […] These and other issues are addressed by the present disclosure.

Series [2] in a line: LPR corrosion test of copper coupons in synthetic water with free chlorine (Gamry corrosion cell). As to conditions: for deterioration in corrosion resistance when free chlorine is added: FAC 1 ppm after 1 hr. The method, then: Several classes of compounds at various concentrations were tested to determine their potential to inhibit corrosion of copper alloy in aqueous systems as shown in Table 1 below.
1 liter samples of synthetic water were each dosed with 5 ppm of a different glucamide compound (A, B, C, D) according to Formula (I) above and 50 ppm of a standard scale inhibitor. Another 1 liter sample of synthetic water was dosed with 4 ppm of tolyltriazole and 50 ppm of the standard scale inhibitor product.
The apparatus used for the corrosion testing was a Gamry Multiport Corrosion Cell and Gamry Reference 600+ potentiostat with multiplexor. Copper coupons (CDA110) were added to the sample cells, and the cells were heated to 50° C. and maintained at this temperature throughout the testing. The cells were continuously stirred at a speed of 350 rpm. A cylindrical working electrode was submerged into the test solutions, and an LPR sweep (linear polarization resistance) was performed every hour for 18 hours. After the one hour mark, 1 ppm of free chlorine was dosed into the corrosion cell.

Regarding `O=C(O)c1nc[nH]c1C(=O)O` [4,5-imidazoledicarboxylic acid], in series [1], the “Solubility in NaOH” value is recorded as “less than 2%”.

Consider Imidazole dicarboxylate [IMDCC], for which the “corrosion inhibition properties (corrosion rates, FIG. 1) as compared to the triazole inhibitors” value in series [2] (Example 1, IMDCC 5, 2.5, 1 ppm vs HST 0.5/0.25/0.1 ppm and TTA 0.5 ppm, CDA110, 50° C., entire 18 hour period) is reported as “superior corrosion inhibition properties”. Further, the “deterioration in corrosion resistance when free chlorine is added” value in series [2] (Example 1, IMDCC 5, 2.5, 1 ppm, CDA110, 50° C.) is “do not exhibit any substantial deterioration”; in series [2] (Example 2, IMDCC 1 ppm, CT1 + IMDCC 100 ppm + 1 ppm, unlike the CT1 inhibitor), “do not exhibit any substantial deterioration”; in series [2] (Example 3, IMDCC 2.0, 1 ppm, HST + IMDCC 0.10+0.90 to 0.90+0.10 ppm), “do not exhibit any substantial deterioration”; in series [2] (Example 4, IMDCC 2.0, 1 ppm, CT2 + IMDCC 50 ppm + 1 ppm, 25 ppm + 2 ppm, unlike the CT2 inhibitor), “do not exhibit any substantial deterioration”. Besides, the “corrosion inhibition properties (corrosion rates, FIG. 2) as compared to the triazole inhibitors” value in series [2] (Example 2, IMDCC 1 ppm, CT1 + IMDCC 100 ppm + 1 ppm vs HST 0.5 ppm, CDA110, 50° C., entire 18 hour period) is “superior corrosion inhibition properties”. In series [2] (Example 3, IMDCC 2.0, 1 ppm, HST + IMDCC 0.10+0.90 to 0.90+0.10 ppm vs HST 1/0.5/0.25 ppm, CDA110, 50° C., entire 18 hour period), the “corrosion inhibition properties (corrosion rates, FIG. 3) as compared to the triazole inhibitors” value is listed as “superior corrosion inhibition properties”. The “corrosion inhibition properties (corrosion rates, FIG. 4) as compared to the triazole inhibitors” value in series [2] (Example 4, IMDCC 2.0, 1 ppm, CT2 + IMDCC 50 ppm + 1 ppm, 25 ppm + 2 ppm, CDA110, 50° C., entire 18 hour period) is recorded as “superior corrosion inhibition properties”.
